# Laboratory results from US9499582B2, “Compositions and methods for increasing carnitine level in muscle tissue” (Oneday—Biotech And Pharma Ltd., priority 2012, dated 2016).
# Key:
# [1] = test system: carnitine level in other tissues, including liver and kidneys; assay: Carnitine levels in other mouse tissues (lung, heart, brain, liver, kidney, blood) after i.p. peptide administration; type: in vivo; conditions: male ICR mice, 250 mg/kg i.p. for 5 consecutive days, tissues removed half an hour after last injection
# Description: (§1) Male ICR mice were injected i.p. with 250 mg/kg of the DY-65 peptide for 5 consecutive days. Half an hour after the last injection lung, heart, skeletal muscle (femural), brain, liver, kidney and blood were removed, homogenized (100 mg tissue in 200 μl distilled water), centrifuged and filtrated through 30K Microcon® filter. Carnitine analysis was carried out by a commercial kit (BIOVISION™, catalogue number K642-100). n=4 for each group.
# [2] = test system: carnitine level in skeletal muscle tissue; assay: Carnitine levels in mouse tissues after i.p. peptide administration (commercial carnitine kit); type: in vivo, Male ICR mice
# Description: as §1
# [3] = Toxicity observation in mice treated with the peptide; type: in vivo; conditions: male ICR mice, 250 mg/kg i.p. for 5 consecutive days
Substance,"elevation in carnitine level in other tissues, including liver and kidneys [1]","elevation in the level of carnitine in skeletal muscle tissue ([2]; healthy male ICR mice, 250 mg/kg i.p. for 5 consecutive days, femural skeletal muscle removed half an hour after last injection, p<0.05, n=4)",toxicity effects [3],"increased carnitine levels compared to baseline levels in any of the tissues examined ([2]; experiment of Example 1 repeated, all tissues examined (lung, heart, skeletal muscle, brain, liver, kidney, blood))"
N-acetyl-Cys-Lys-Met-Cys-NH2 (Ac-CKMC-NH2; cysteine pairing not given here) [DY-65],did not demonstrate a significant elevation in carnitine level,about 150%,no toxicity effects were observed,
"N-acetyl-Cys-Met-Lys-Cys-NH2 (Ac-CMKC-NH2; cysteine pairing not given here) [DY-70, reference compound]",,,,did not result in increased carnitine levels
